Test system: HeLa cells
Experiment: In vitro efficacy of mFLuc mRNA-encapsulated lipid nanoparticles, luminescence
Assay type: cell-based
Conditions: 20 ng mFLuc-encapsulated LNP, 24 hours
Protocol: To determine the efficacy of mRNA-encapsulated lipid nanoparticles in vitro, screening was performed using lipid nanoparticles synthesized with various amine head groups.
The test was conducted by treating 20 ng of mFLuc (SEQ ID NO: 1)-encapsulated lipid nanoparticles into HeLa cells using each lipid nanoparticle synthesized with various amine headgroups (Compounds 1, 2, 4, and 5). The luminescence intensity was measured at 24 hours.

Structure (SMILES)	Relative luminescence mean value	expression effect (luminescence intensity), in words
CCCCCC/C=C\COC(=O)CCCCCCCCN(CCCCCCCCC(=O)OC/C=C\CCCCCC)CCCN1CCN(CCCN(CCCCCCCCC(=O)OC/C=C\CCCCCC)CCCCCCCCC(=O)OC/C=C\CCCCCC)CC1 [Compound 4]	39970.75	
CCCCCC/C=C\COC(=O)CCCCCCCCN(CCCCCCCCC(=O)OC/C=C\CCCCCC)CCN1CCN(CCCCCCCCC(=O)OC/C=C\CCCCCC)CC1 [Compound 5]	1022327.75	highest expression effect

— patent US20260014075A1, “IONIZABLE LIPID CONTAINING BIODEGRADABLE ESTER BOND AND LIPID NANOPARTICLES COMPRISING SAME” (ST PHARM CO., LTD., priority 2022, published 2026)
